Experimental data published in PMC9982066, “Inhibition of Ehrlichia chaffeensis infection by cell-permeable macrocyclic peptides that bind type IV secretion effector Etf-1” (PNAS Nexus, 2023).
Where two headings read alike, the source gives them in different places. Starred links: 1 amine or outer side, 2 acyl side, 3 side chain; linkers in the order of their positions; H or OH if unused. Positions of bridges follow the written chain, without caps; N, C: chain ends. Non-standard residues stand in square brackets, D forms with d. Residues, ends and D or L forms follow the SMILES beside them. Trimesoyl = O=C(c1cc(C(=O)[*:2])cc(C(=O)[*:3])c1)[*:1]; Phe(4-Cl) = N[C@@H](Cc1ccc(Cl)cc1)C(=O)O; 2Nal = N[C@@H](Cc1ccc2ccccc2c1)C(=O)O; d2Nal = N[C@H](Cc1ccc2ccccc2c1)C(=O)O; Phg = N[C@H](C(=O)O)c1ccccc1; d(β3hA) = C[C@@H](N)CC(=O)O; Dap = NC[C@H](N)C(=O)O

What was measured:
[1] = LDH release assay (plasma membrane damage); type: cell-based; conditions: Fig. S2
Description: LDH release assay (Promega) was performed to assess the level of plasma membrane damage in a cell population by these compounds. […] Control wells contained 10 μL of lysis buffer, cell-free complete growth media, or positive LDH control. Following incubation at 37°C and 5% CO2 for 45 to 75 min, the culture was centrifuged and 50 μL of the growth medium was withdrawn from each well, transferred to a clear 96-well plate, mixed with 50 μL of LDH substrate mixture, and incubated at RT for 30 min with gentle mixing. Finally, 50 μL of 1 N HCl was added to each well, and the absorbances at 490 and 680 nm were immediately measured on a Tecan Infinite M1000 plate reader. Relative membrane leakage was calculated and plotted using GraphPad Prism v8.0.

E. chaffeensis [2] = test: morphological examination of E. chaffeensis infection of THP-1 cells by Diff-Quik staining; conditions: for E. chaffeensis infection (numbers and sizes of morulae): THP-1 cells, Fig. S4 (with Figs. 5, S3)
THP-1 cells = test: CellTiter-Glo luminescent cell viability assay; conditions: 20 μM, 2-day treatment
Description: THP-1 (human promyelocytic leukemia) cells are widely used as E. chaffeensis infection studies of human monocytes in vitro, since initial characterization of infection ([31]).
Fig. 4. Cytotoxicity and proteolytic stability of Etf-1-binding peptides. (A) Effect of Etf-1-binding peptides on the viability of THP-1 cells as determined by CellTiter-Glo luminescent assay. Relative luminescence was plotted as function of the peptide concentration, with the cell viability of DMSO control group set as 100%. (B) Plot of the amount of intact peptide remaining as a function of the incubation time in 25% human serum. All values are normalized to that of peptide at time 0 (100%).
Cytotoxicity of Etf-1-binding peptides was examined by CellTiter-Glo luminescent cell viability assay (Promega, Madison, WI, USA). THP-1 cells were seeded in a transparent 96-well plate at a density of 5 × 10^3 cells/well (100 μL in each well) in RPMI-1640 containing 10% FBS and 1% antibiotics and cultured overnight. Etf-1-binding peptides were serially diluted in DPBS from a DMSO stock and added to the cells with the final concentration of 0–25 μM and a constant final concentration of 0.5% DMSO (v/v). After incubation at 37°C with 5% CO2 for 46 h, the plate was removed and pre-equilibrated to RT before the addition of 100 μL of the CellTiter-Glo 2.0 reagent to each well. The plate was incubated for 15 min on a rotary shaker in the dark, and the luminescence was detected (1-s integration time) on a Tecan Infinite M1000 Pro microplate reader. Relative luminescence was plotted as function of the peptide concentration, with the cell viability of DMSO control group set as 100%.

E. chaffeensis [3] = test: E. chaffeensis infection of THP-1 cells, qPCR of 16S rRNA gene normalized to human actin; type: cell-based, Ehrlichia chaffeensis; conditions: for inhibition of E. chaffeensis infection: 10 μM, 2 days, vs DMSO control
Etf-1 [4] = molecular target: T1, Etf-1 (Ehrlichia chaffeensis, UniProt Q2GG12); test: biochemical; type: binding; conditions: for competition for Etf-1 binding: unlabeled competitor peptides vs FAM-B7-133-8
T1 sequence (Q2GG12 entry or part of it): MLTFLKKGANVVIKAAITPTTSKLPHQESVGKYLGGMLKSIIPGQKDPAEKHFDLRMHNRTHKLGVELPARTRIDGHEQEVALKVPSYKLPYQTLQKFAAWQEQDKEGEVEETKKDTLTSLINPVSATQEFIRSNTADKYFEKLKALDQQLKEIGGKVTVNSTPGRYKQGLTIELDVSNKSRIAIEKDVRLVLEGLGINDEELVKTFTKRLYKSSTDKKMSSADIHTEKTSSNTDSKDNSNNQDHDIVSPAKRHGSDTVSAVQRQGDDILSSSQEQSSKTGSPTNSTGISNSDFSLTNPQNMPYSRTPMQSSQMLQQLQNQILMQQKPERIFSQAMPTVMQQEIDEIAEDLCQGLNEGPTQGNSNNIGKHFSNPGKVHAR
Description: (§1) Fig. 2. Determination of binding affinity of Etf-1-binding peptides by FP assay. […] FAM-labeled peptide (50 nM) was incubated with serially diluted Etf-1 (starting from 25–30 μM in PBS, pH 7.4, supplemented with 5 mM DTT and 0.01% Triton X-100) for 1 h at RT. FP values were measured on a Tecan Infinite M1000 Pro plate reader. Titration curves (n ≥ 3) were fitted using GraphPad Prism and analyzed with TraceDrawer to calculate dissociation constants (KD). […] Data were analyzed using GraphPad Prism and fitted to a four-parameter variable slope equation to determine IC50 values.
Serial dilutions of competitor peptide (0-20 μM) were prepared from DMSO stock solutions into PBS containing 0.01% Triton-X100 and 2 mM TCEP and added to aliquots of the equilibrated Etf-1/probe solution. After incubation for 1 h in the dark and with gentle mixing, 20 μL of each sample was transferred into 384-well black-on-black microplates and FP was measured using a TECAN Infinite M1000 plate reader. Data were analyzed using GraphPad PRISM ver. 8.0 and fit to a four-parameter variable slope equation to determine IC50 values. IC50 values reported are the mean ± SD of n = 2–4 independent experiments.

[5] = serum stability assay (UPLC); type: in vitro ADME; conditions: 25% (v/v) in DPBS; 25% human serum, 37°C, after 22 h; read-out: degradation
Description: In comparison, the linear peptide Tat (cell-permeable peptide of HIV) was completely degraded within the first 120 min of incubation (Fig. 4B).
Human serum was diluted to 25% (v/v) in sterile DPBS and equilibrated at 37°C for 15 min. Peptides were added to the diluted serum to a final concentration of 20 μM and incubated at 37°C with gentle mixing. At designated time points, 30 μL aliquots were withdrawn and mixed with 30 μL of 15% trichloroacetic acid in MeOH (w/v) and 30 μL of MeCN and stored at 4°C overnight to completely precipitate the serum proteins. Next, each aliquot was centrifuged (15,000g, 5 min, 4°C) and 14 μL of the supernatant was injected in an UPLC equipped with an analytical Waters Acquity UPLC BEH C18 column (1.7 μm, 2.1 mm I.D., 100 mm length) and an inline UV-Vis detector and a single quadrupole mass detector. The column was eluted with a linear gradient of 20–50% MeCN in ddH2O containing 0.1% TFA. A UV/Vis detector at 214 nm and the mass spec quantifying the ion counts corresponding to the [M + 3H]^3+ ion of the analytes were used to analyze the samples. The area under the peak of interest was obtained by integration, normalized to that of the peptide at t = 0, and plotted as a function of the incubation time to determine the serum half-life of the peptide.

BECN1 binding to Etf-1 = test: streptavidin magnetic beads pull-down of BECN1 with biotin-Etf-1, Western blot; type: biochemical; conditions: 10 µM peptide; for BECN1/Etf-1 Ratio: band intensities, DMSO control set as 1, Fig. 8B
Description: Fig. 8.
Streptavidin magnetic beads (15 µL, Pierce, Rockford, IL, USA) were washed with 1 mL of Bind/Wash buffer (25 mM Tris, pH 7.4; 250 mM NaCl, 0.1% Tween 20), and incubated with 0.15 µg ([…] final concentration) of biotinylated full-length Etf-1 protein in bind/wash buffer at 4°C overnight with end-to-end rotation. Beads were washed three times with Bind/Wash buffer, then incubated with Etf-1-binding macrocyclic peptides (10 µM) or DMSO control in Bind/Wash buffer at room temperature for 2 h. […] Beads were washed three times, and proteins were eluted from the beads with 50 µL of 2× SDS-sample buffer. […] Reacting bands were visualized with enhanced chemiluminescence by incubating the membrane with LumiGLO chemiluminescent reagent (Thermo Fisher Scientific). Images were captured by Amersham Imager 680 (GE Healthcare) and densitometry analysis was performed using ImagQuaNT (GE Healthcare). In each specimen, band intensities were normalized against those of actin as the loading control, and the ratios of the treatment group to the control group were calculated with the value in the control groups arbitrarily set as 1.0.

Etf-1 [6] = molecular target: T1, Etf-1; test: FP assay of Etf-1 binding with FAM-labeled peptides
Description: The peptides were labeled at their C-terminus with carboxyfluorescein (FAM) through a β-Ala-β-Ala-Lys linker and evaluated for binding to Etf-1 by using a fluorescence polarization (FP) assay. […] This outcome is not unexpected, as screening OBOC libraries is often complicated by false positives, due to the presence of high ligand densities on library beads ([28]).
as §1
Etf-1 and macrocyclic peptides were serially diluted in PBS supplemented with 5 mM DTT and 0.01% Triton X-100 (v/v). FAM-labeled peptides (50 nM) were prepared from a 10-μM DMSO stock and incubated with serially diluted Etf-1 for 1 h at room temperature (RT). Twenty microliters of the solutions were transferred to a black 384-well plate (Greiner Bio-One) and FP values were measured on a Tecan Infinite M1000 Pro plate reader with excitation and emission wavelengths at 470 and 535 nm, respectively. Titration curves (n ≥ 3) were fitted using GraphPad Prism v8.0 (GraphPad, La Jolla, CA, USA), and analyzed with TraceDrawer software v1.8 (Ridgeview Instruments AB, Uppsala, Sweden) to calculate the dissociation constant (KD, in nM).

Etf-1-GFP = test: mitochondrial localization of ectopically expressed Etf-1-GFP in RF/6A cells; type: cell-based, Ehrlichia chaffeensis; conditions: 10 μM, 2 days
Description: For mitochondria localization analysis, RF/6A cells were seeded onto a cover glass in a 12-well plate for 3 h, then infected with E. chaffeensis at ∼30 MOI. Alternatively, cells were transfected with Etf-1-GFP or Etf-1-DsRed plasmids using Fugene HD (Promega) or by electroporation at 100 V and 1,000 µF using the Gene Pulser Xcell System (BioRad) according to the manufacturers’ instructions ([16]). […] To examine the roles of macrocyclic peptides on Etf-1 localization on E. chaffeensis inclusions, infected RF/6A cells were treated with 10 μM peptides at 3 h pi for 2 days. At 2 days pi or pt, cells were washed 3 times with PBS, then fixed in 4% PFA for 20 min. Native Etf-1 and mitochondria marker cytochrome C proteins were labeled with rabbit anti-Etf-1 IgG and mouse anti-cytochrome C, then with AF488-conjugated goat anti-rabbit and anti-mouse secondary antibodies in PGS (PBS with 0.1% gelatin and 0.1% saponin) for 1 h each at RT. Host-cell and Ehrlichial DNAs were stained with 300 nM DAPI, and fluorescence with differential interference contrast images were observed and captured with a DeltaVision deconvolution microscope (Applied Precision, Issaquah, WA, USA). Percentages of Etf-1 protein colocalization with macrocyclic peptides or E. chaffeensis inclusions were quantified by counting 10–20 cells per group from three independent experiments.

Structure (SMILES)	release of lactate dehydrogenase (LDH) [1]	E. chaffeensis infection (numbers and sizes of morulae) (E. chaffeensis [2])	cytotoxicity (cell lysis in treated groups) (E. chaffeensis [2]; THP-1 host cells)	cell viability (THP-1 cells)	inhibition of E. chaffeensis infection (E. chaffeensis [3])	competition for Etf-1 binding (Etf-1 [4])	metabolised at 22 h, 20 µM [5] [%]	disruption of BECN1 binding to Etf-1 (BECN1 binding to Etf-1; compared to DMSO control)	BECN1/Etf-1 Ratio (BECN1 binding to Etf-1)	cytotoxicity (cell lysis in treated groups) (E. chaffeensis [2])	dose dependence of inhibition of E. chaffeensis infection (E. chaffeensis [3]; 1, 5, and 10 μM)	inhibition of E. chaffeensis infection compared with peptide B7 (or B7-16) (E. chaffeensis [3]; THP-1 cells)	IC50 (Etf-1 [4]) [nM]	Kd (Etf-1 [6]) [nM]	effect on mitochondrial localization of Etf-1-GFP (Etf-1-GFP)
CC(C)C[C@H]1NC(=O)[C@H](c2ccccc2)NC(=O)[C@H](CO)NC(=O)[C@@H](Cc2ccc3ccccc3c2)NC(=O)[C@@H](CC(N)=O)NC(=O)[C@H](Cc2ccc(O)cc2)NC(=O)c2cc3cc(c2)C(=O)NC[C@H](NC(=O)[C@@H](CC(C)C)NC1=O)C(=O)N[C@@H](Cc1ccc(Cl)cc1)C(=O)N[C@H](Cc1ccc2ccccc2c1)C(=O)N[C@H](CCCNC(=N)N)C(=O)N[C@@H](CCCNC(=N)N)C(=O)N[C@H](CCCNC(=N)N)C(=O)N[C@@H](CCCNC(=N)N)C(=O)N[C@H](C(N)=O)CNC3=O [Peptide B7-131-1, TMA-Tyr-asn-nal-Ser-Phg-leu-leu-Dap-4-ClPhe-nal-arg-Arg-arg-Arg-Dap] (Y[dN][d2Nal]S[Phg][dL][dL][Dap][Phe(4-Cl)][d2Nal][dR]R[dR]R[Dap]-NH2; linker N-8-15 via Trimesoyl)	significant release of lactate dehydrogenase	significantly inhibited	certain degrees of cytotoxicity	greater loss of cell viability	significantly inhibited	Competition for Etf-1 binding was observed	< 20	–	–	–	–	–	–	–	–
CC(C)C[C@H]1NC(=O)[C@H]2CCCN2C(=O)C[C@@H](C)NC(=O)[C@H](CCC(N)=O)NC(=O)[C@@H](Cc2ccc3ccccc3c2)NC(=O)[C@H](Cc2ccc(O)cc2)NC(=O)c2cc3cc(c2)C(=O)NC[C@H](NC1=O)C(=O)N[C@@H](Cc1ccc(Cl)cc1)C(=O)N[C@H](Cc1ccc2ccccc2c1)C(=O)N[C@H](CCCNC(=N)N)C(=O)N[C@@H](CCCNC(=N)N)C(=O)N[C@H](CCCNC(=N)N)C(=O)N[C@@H](CCCNC(=N)N)C(=O)N[C@H](C(N)=O)CNC3=O [Peptide B7-133-8, TMA-Tyr-nal-Gln-homoAla-pro-leu-Dap-4-ClPhe-nal-arg-Arg-arg-Arg-Dap] (Y[d2Nal]Q[d(β3hA)][dP][dL][Dap][Phe(4-Cl)][d2Nal][dR]R[dR]R[Dap]-NH2; linker N-7-14 via Trimesoyl)	significant release of lactate dehydrogenase	significantly inhibited	–	–	significantly inhibited	Competition for Etf-1 binding was observed	< 20	disrupted BECN1 binding to Etf-1	0.19	certain degrees of cytotoxicity	dose-dependent manner	significantly more potent inhibition	110 ± 20	–	–
C[C@H]1NC(=O)[C@H](CO)NC(=O)[C@@H](CCC(=O)O)NC(=O)c2cc3cc(c2)C(=O)NC[C@H](NC(=O)[C@H](CO)NC(=O)[C@H](Cc2c[nH]cn2)NC(=O)[C@@H](Cc2ccccc2)NC1=O)C(=O)N[C@H](Cc1ccccc1)C(=O)N[C@@H](Cc1ccc2ccccc2c1)C(=O)N[C@@H](CCCNC(=N)N)C(=O)N[C@H](CCCNC(=N)N)C(=O)N[C@@H](CCCNC(=N)N)C(=O)N[C@H](CCCNC(=N)N)C(=O)N[C@H](C(N)=O)CNC3=O [Peptide C17, TMA-glu-Ser-ala-phe-His-Ser-Dap-phe-Nal-Arg-arg-Arg-arg-Dap] ([dE]S[dA][dF]HS[Dap][dF][2Nal]R[dR]R[dR][Dap]-NH2; linker N-7-14 via Trimesoyl)	–	did not inhibit	–	–	no effect	–	–	–	1.17	–	–	–	–	> 25000	neither peptide B7 nor C17 affected mitochondrial localization
